The target in assay [1] is T1, Serine/threonine-protein kinase B-raf (Homo sapiens, UniProt P15056). Put plainly: Binding affinity to BRAF (unknown origin) by intrinsic tryptophan fluorescence assay.
The subject of assay [2] is MCF-10A. Put plainly: Antiproliferative activity against EGF-dependent human MCF10A cells assessed as inhibition of colony growth at 1.5 uM supplemented with fresh medium containing compound every 2 days for 11 days. The format is functional.
For assay [3], the target named is T1, Serine/threonine-protein kinase B-raf. As to the kind of experiment: Inhibition of BRAF in NRAS Q61K mutant-driven human SBcl2 cells assessed as suppression of vemurafenib-induced phosphorylation of ERK expression at 300 uM administered via electroporation for 30 mins followed by vemurafenib addition and measured after 1 hr by Western blot analysis.
Assay [4] has as its system MCF-10A. As to the kind of experiment: Antiproliferative activity against EGF-dependent human MCF10A cells assessed as inhibition of colony growth at 2 uM supplemented with fresh medium containing compound every 2 days for 11 days. It counts as functional.
For assay [5], the target named is T1, Serine/threonine-protein kinase B-raf. Put plainly: Inhibition of BRAF in NRAS Q61K mutant-driven human SBcl2 cells assessed as suppression of vemurafenib-induced phosphorylation of MEK expression at 300 uM administered via electroporation for 30 mins followed by vemurafenib addition and measured after 1 hr by Western blot analysis. For orientation: Immunoblotting shows a protein as a band on a membrane.

Assay [6] shares this target. Put plainly: Inhibition of BRAF in NRAS Q61K mutant-driven human SBcl2 cells assessed as suppression of vemurafenib-induced phosphorylation of MEK expression administered via electroporation for 30 mins followed by vemurafenib addition and measured after 1 hr by Western blot analysis.
Assay [7] has the same target. Put plainly: Inhibition of BRAF in NRAS Q61K mutant-driven human SBcl2 cells assessed as suppression of vemurafenib-induced phosphorylation of ERK expression administered via electroporation for 30 mins followed by vemurafenib addition and measured after 1 hr by Western blot analysis.

Peptide text beside a SMILES is read from it.

T1 sequence (P15056 whole entry): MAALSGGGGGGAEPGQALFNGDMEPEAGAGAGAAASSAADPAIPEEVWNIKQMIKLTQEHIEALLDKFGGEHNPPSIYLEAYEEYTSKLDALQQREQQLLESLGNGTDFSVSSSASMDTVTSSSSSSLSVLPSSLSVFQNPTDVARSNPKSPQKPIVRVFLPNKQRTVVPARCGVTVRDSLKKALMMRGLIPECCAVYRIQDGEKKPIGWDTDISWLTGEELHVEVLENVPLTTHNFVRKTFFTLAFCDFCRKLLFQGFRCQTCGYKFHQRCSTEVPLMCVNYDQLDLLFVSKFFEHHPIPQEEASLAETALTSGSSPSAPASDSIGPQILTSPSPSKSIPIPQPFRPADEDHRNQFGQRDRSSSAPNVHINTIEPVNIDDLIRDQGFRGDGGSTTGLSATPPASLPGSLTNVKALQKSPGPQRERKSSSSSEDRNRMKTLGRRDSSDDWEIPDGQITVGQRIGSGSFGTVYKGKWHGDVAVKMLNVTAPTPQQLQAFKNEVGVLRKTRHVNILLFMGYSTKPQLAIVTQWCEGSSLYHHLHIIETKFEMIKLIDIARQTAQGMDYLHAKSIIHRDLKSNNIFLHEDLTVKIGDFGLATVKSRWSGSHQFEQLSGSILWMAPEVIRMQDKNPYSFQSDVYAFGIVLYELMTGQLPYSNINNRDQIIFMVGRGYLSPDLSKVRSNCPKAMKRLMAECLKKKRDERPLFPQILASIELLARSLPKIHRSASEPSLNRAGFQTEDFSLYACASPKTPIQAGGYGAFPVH

Usually Kd stands for the equilibrium constant for the complex coming apart. For the molecule `CC[C@H](C)[C@H](NC(=O)[C@H](CC(N)=O)NC(=O)[C@@H](NC(=O)[C@H](Cc1cnc[nH]1)NC(=O)[C@H](CCCNC(=N)N)NC(=O)[C@@H](NC(=O)[C@H](CCCCN)NC(=O)[C@H](CCCNC(=N)N)NC(=O)[C@H](CC(C)C)NC(=O)[C@@H](NC(=O)CN)C(C)C)[C@@H](C)O)C(C)C)C(=O)N[C@@H](CC(C)C)C(=O)N[C@@H](CC(C)C)C(=O)N[C@@H](CC(=O)O)C(=O)N[C@@H](CCSC)C(=O)NCC(=O)N[C@@H](Cc1ccc(O)cc1)C(=O)N[C@@H](CO)C(=O)N[C@H](C(=O)O)[C@@H](C)O`, in assay [1], the Kd result is “Not Active”.

As to `CC[C@H](C)[C@H](NC(=O)[C@H](CC(N)=O)NC(=O)[C@H](C)NC(=O)[C@H](Cc1cnc[nH]1)NC(=O)[C@H](CCCNC(=N)N)NC(=O)[C@@H](NC(=O)[C@H](CCCCN)NC(=O)[C@H](CCCNC(=N)N)NC(=O)[C@H](CC(C)C)NC(=O)[C@@H](NC(=O)CN)C(C)C)[C@@H](C)O)C(=O)N[C@@H](CC(C)C)C(=O)N[C@@H](CC(C)C)C(=O)N[C@@H](Cc1ccccc1)C(=O)N[C@@H](CCSC)C(=O)NCC(=O)N[C@@H](Cc1ccc(O)cc1)C(=O)N[C@@H](CO)C(=O)N[C@H](C(=O)O)[C@@H](C)O`, the Kd in assay [1] (read-out: Kd) turned out to be 4.75 µM.

For `CC[C@H](C)[C@H](NC(=O)[C@H](CC(N)=O)NC(=O)[C@@H](NC(=O)[C@H](Cc1cnc[nH]1)NC(=O)[C@H](CCCNC(=N)N)NC(=O)[C@@H](NC(=O)[C@H](CCCCN)NC(=O)[C@H](CCCNC(=N)N)NC(=O)[C@H](CC(C)C)NC(=O)[C@@H](N)C(C)C)[C@@H](C)O)C(C)C)C(=O)N[C@@H](CC(C)C)C(=O)N[C@@H](CC(C)C)C(=O)N[C@@H](Cc1ccccc1)C(=O)N[C@@H](CCSC)C(=O)NCC(=O)O`, the “inhibition (INH)” value in the assay on MCF-10A [2] is listed as 100%.

As for `CC[C@H](C)[C@H](NC(=O)[C@H](C)NC(=O)[C@@H](NC(=O)[C@H](Cc1cnc[nH]1)NC(=O)[C@H](CCCNC(=N)N)NC(=O)[C@@H](NC(=O)[C@H](CCCCN)NC(=O)[C@H](CCCNC(=N)N)NC(=O)[C@H](CC(C)C)NC(=O)[C@@H](N)C(C)C)[C@@H](C)O)C(C)C)C(=O)N[C@@H](CC(C)C)C(=O)N[C@@H](CC(C)C)C(=O)N[C@@H](Cc1ccccc1)C(=O)N[C@@H](CCSC)C(=O)NCC(=O)O` (H-VLRKTRHVAILLFMG-OH), the dissociation constant Kd result in assay [1] is recorded as “Not Active”.

As for `CC[C@H](C)[C@H](NC(=O)[C@H](CC(N)=O)NC(=O)[C@@H](NC(=O)[C@H](Cc1cnc[nH]1)NC(=O)[C@H](CCCNC(=N)N)NC(=O)[C@H](CC(=O)O)NC(=O)[C@H](CCCCN)NC(=O)[C@H](CCCNC(=N)N)NC(=O)[C@H](CC(C)C)NC(=O)[C@@H](NC(=O)CN)C(C)C)C(C)C)C(=O)N[C@@H](CC(C)C)C(=O)N[C@@H](CC(C)C)C(=O)N[C@@H](Cc1ccccc1)C(=O)N[C@@H](CCSC)C(=O)NCC(=O)N[C@@H](Cc1ccc(O)cc1)C(=O)N[C@@H](CO)C(=O)N[C@H](C(=O)O)[C@@H](C)O`, the Kd in assay [1] (read-out: Kd) stood at 2.2 µM.

For the molecule `CC[C@H](C)[C@H](NC(=O)[C@H](CC(N)=O)NC(=O)[C@@H](NC(=O)[C@H](Cc1cnc[nH]1)NC(=O)[C@H](CCCNC(=N)N)NC(=O)[C@@H](NC(=O)[C@H](CCCCN)NC(=O)[C@H](CCC(=O)O)NC(=O)[C@H](CC(C)C)NC(=O)[C@@H](NC(=O)CN)C(C)C)[C@@H](C)O)C(C)C)C(=O)N[C@@H](CC(C)C)C(=O)N[C@@H](CC(C)C)C(=O)N[C@@H](Cc1ccccc1)C(=O)N[C@@H](CCSC)C(=O)NCC(=O)N[C@@H](Cc1ccc(O)cc1)C(=O)N[C@@H](CO)C(=O)N[C@H](C(=O)O)[C@@H](C)O`, the Kd in assay [1] (read-out: Kd) stood at 1.09 µM.

For the molecule `CC[C@H](C)[C@H](NC(=O)[C@H](CC(N)=O)NC(=O)[C@@H](NC(=O)[C@H](Cc1cnc[nH]1)NC(=O)[C@H](Cc1cnc[nH]1)NC(=O)[C@@H](NC(=O)[C@H](CCCCN)NC(=O)[C@H](CCCNC(=N)N)NC(=O)[C@H](CC(C)C)NC(=O)[C@@H](NC(=O)CN)C(C)C)[C@@H](C)O)C(C)C)C(=O)N[C@@H](CC(C)C)C(=O)NCC(=O)N[C@@H](Cc1ccccc1)C(=O)N[C@@H](Cc1c[nH]c2ccccc12)C(=O)NCC(=O)N[C@@H](Cc1ccc(O)cc1)C(=O)N[C@@H](CO)C(=O)N[C@H](C(=O)O)[C@@H](C)O` (H-GVLRKTHHVNILGFWGYST-OH), the equilibrium dissociation constant (Kd) entry in assay [1] is reported as “Not Active”.

`CC[C@H](C)[C@H](NC(=O)[C@H](CC(N)=O)NC(=O)[C@@H](NC(=O)[C@H](Cc1cnc[nH]1)NC(=O)[C@H](CCCNC(=N)N)NC(=O)[C@@H](NC(=O)[C@H](CCCCN)NC(=O)[C@H](CCCNC(=N)N)NC(=O)[C@H](CC(C)C)NC(=O)[C@@H](NC(=O)CN)C(C)C)[C@@H](C)O)C(C)C)C(=O)N[C@@H](C)C(=O)N[C@@H](CC(C)C)C(=O)N[C@@H](Cc1ccccc1)C(=O)N[C@@H](CCSC)C(=O)NCC(=O)N[C@@H](Cc1ccc(O)cc1)C(=O)N[C@@H](CO)C(=O)N[C@H](C(=O)O)[C@@H](C)O`: in assay [1] (read-out: Kd), the Kd was determined as 9.8 µM.

`CC[C@H](C)[C@H](NC(=O)[C@H](CC(N)=O)NC(=O)[C@@H](NC(=O)[C@H](Cc1cnc[nH]1)NC(=O)[C@H](CCCNC(=N)N)NC(=O)[C@@H](NC(=O)[C@H](CCCCN)NC(=O)[C@H](CC(C)C)NC(=O)[C@H](CC(C)C)NC(=O)[C@@H](NC(=O)CN)C(C)C)[C@@H](C)O)C(C)C)C(=O)N[C@@H](CC(C)C)C(=O)N[C@@H](CC(C)C)C(=O)N[C@@H](Cc1ccccc1)C(=O)N[C@@H](CCSC)C(=O)NCC(=O)N[C@@H](Cc1ccc(O)cc1)C(=O)N[C@@H](CO)C(=O)N[C@H](C(=O)O)[C@@H](C)O`: the Kd in assay [1] (read-out: Kd) was found to be 0.54 µM.

With `CC[C@H](C)[C@H](NC(=O)[C@H](CC(N)=O)NC(=O)[C@@H](NC(=O)[C@H](Cc1cnc[nH]1)NC(=O)[C@H](CCCNC(=N)N)NC(=O)[C@@H](NC(=O)[C@H](CCCCN)NC(=O)[C@H](CCCNC(=N)N)NC(=O)[C@H](CC(C)C)NC(=O)[C@@H](NC(=O)CN)C(C)C)[C@@H](C)O)C(C)C)C(=O)N[C@@H](CC(C)C)C(=O)N[C@@H](CC(C)C)C(=O)N[C@@H](Cc1ccccc1)C(=O)N[C@@H](CCSC)C(=O)NCC(=O)O` (H-GVLRKTRHVNILLFMG-OH), the Kd in assay [1] (read-out: Kd) was found to be 1.88 µM.

As for `CC[C@H](C)[C@H](NC(=O)[C@H](CC(C)C)NC(=O)[C@@H](NC(=O)[C@H](CC(N)=O)NC(=O)[C@@H](NC(=O)[C@H](Cc1cnc[nH]1)NC(=O)[C@H](CCCNC(=N)N)NC(=O)[C@@H](NC(=O)[C@H](CCCCN)NC(=O)[C@H](CCCNC(=N)N)NC(=O)[C@H](CC(C)C)NC(=O)[C@@H](NC(=O)CN)C(C)C)[C@@H](C)O)C(C)C)[C@@H](C)CC)C(=O)N[C@@H](Cc1ccccc1)C(=O)N[C@@H](CCSC)C(=O)NCC(=O)N[C@@H](Cc1ccc(O)cc1)C(=O)N[C@@H](CO)C(=O)N[C@H](C(=O)O)[C@@H](C)O`, in assay [1] (read-out: Kd), the Kd is 4.1 µM.

Broadly, the inhibition is the share of the control response that was lost under treatment. For the molecule `CC[C@H](C)[C@H](NC(=O)[C@H](CC(N)=O)NC(=O)[C@@H](NC(=O)[C@H](Cc1cnc[nH]1)NC(=O)[C@H](CCCNC(=N)N)NC(=O)[C@@H](NC(=O)[C@H](CCCCN)NC(=O)[C@H](CCCNC(=N)N)NC(=O)[C@H](CC(C)C)NC(=O)[C@@H](NC(=O)CN)C(C)C)[C@@H](C)O)C(C)C)C(=O)N[C@@H](CC(C)C)C(=O)N[C@@H](CC(C)C)C(=O)N[C@@H](Cc1ccccc1)C(=O)N[C@@H](CCSC)C(=O)NCC(=O)N[C@@H](Cc1ccc(O)cc1)C(=O)N[C@@H](CO)C(=O)N[C@H](C(=O)O)[C@@H](C)O`, the inhibition in assay [3] was 100%; in assay [5], 100%; in assay [6] it was “Dose-dependent effect”; in assay [7] it was “Dose-dependent effect”. Also, in the assay with MCF-10A [4], the “inhibition (INH)” value is listed as 100%.

`CSCC[C@@H]1NC(=O)[C@H](Cc2ccccc2)NC(=O)[C@H](CC(C)C)NC(=O)[C@H](CC(C)C)NC(=O)[C@H](CCC(=O)O)NC(=O)[C@H](CC(N)=O)NC(=O)[C@H](C(C)C)NC(=O)[C@H](Cc2cnc[nH]2)NC(=O)[C@H](CCCNC(=N)N)NC(=O)[C@H](CCCCN)NC(=O)[C@H](CCCCN)NC(=O)[C@H](CCCNC(=N)N)NC(=O)[C@H](CC(C)C)NC(=O)CNC1=O`: the Kd in assay [1] (read-out: Kd) worked out at 1.89 µM.

For `CC[C@H](C)[C@H](NC(=O)[C@H](CC(N)=O)NC(=O)[C@@H](NC(=O)[C@H](Cc1ccccc1)NC(=O)[C@H](CCCNC(=N)N)NC(=O)[C@@H](NC(=O)[C@H](CCCCN)NC(=O)[C@H](CCCNC(=N)N)NC(=O)[C@H](CC(C)C)NC(=O)[C@@H](NC(=O)CN)C(C)C)[C@@H](C)O)C(C)C)C(=O)N[C@@H](CC(C)C)C(=O)N[C@@H](CC(C)C)C(=O)N[C@@H](Cc1ccccc1)C(=O)N[C@@H](CCSC)C(=O)NCC(=O)N[C@@H](Cc1ccc(O)cc1)C(=O)N[C@@H](CO)C(=O)N[C@H](C(=O)O)[C@@H](C)O`, the Kd result in assay [1] is on record as “Not Active”.
